Converted amounts (≈) assume the structure as drawn. The source made the active and inactive calls. No cut-off for these calls is given here. Bounds are passed on as bounds.

The first experiment deals with Vaccinia virus. Kind of experiment: Antiviral activity against Vaccinia virus infected in human skin fibroblast cells assessed as inhibition of virus-induced cytopathogenicity treated immediately after virus adsorption measured 2 to 3 days after virus infection. The experiment is classed as functional. The settings on record: Orthopoxvirus vaccinia.
For `Nc1ccn([C@@H]2O[C@H](CO)[C@@H](O)[C@@H]2O)c(=O)n1` [CYTARABINE], the MIC stood at 0.02 µg/mL (≈ 0.0822 µM).
The same measure, in the same setting: for `CCc1cn([C@@H]2O[C@H](CO)[C@@H](O)[C@@H]2O)c(=O)nc1N` the value was greater than 200 µg/mL; for `Cc1cn([C@@H]2O[C@H](CO)[C@@H](O)[C@@H]2O)c(=O)[nH]c1=O`, 2 µg/mL (≈ 7.75 µM); for `CCc1cn([C@@H]2O[C@H](CO)[C@@H](O)[C@@H]2O)c(=O)[nH]c1=O`, greater than 200 µg/mL.
Still for that read-out and setting: in the case of `O=c1ccn([C@@H]2O[C@H](CO)[C@@H](O)[C@@H]2O)c(=O)[nH]1` [ARAURIDINE] it was greater than 200 µg/mL.

The next experiment relates to Vaccinia virus. Nature of the experiment: Antiviral activity against Vaccinia virus infected in human skin fibroblast cells assessed as inhibition of virus-induced cytopathogenicity at 200 ug/ml treated immediately after virus adsorption measured 2 to 3 days after virus infection. The experiment is classed as functional, organism-based. To be noted: Orthopoxvirus vaccinia.
Regarding `CCc1cn([C@H]2O[C@H](CO)[C@@H](O)[C@@H]2O)c(=O)nc1N`, the inhibition entry was “inactive”.
Regarding `CCc1cn([C@H]2O[C@H](CO)[C@@H](O)[C@@H]2O)c(=O)[nH]c1=O`, the inhibition entry was “inactive”.
